molecular target: T1, human IRAK4 (Homo sapiens, UniProt Q9NWZ3); test: Human IRAK4 kinase activity inhibition assay (IRAK4 TR-FRET assay); type: biochemical; details: 1 mM ATP, GST-human IRAK4, average or median values
T1 construct: GST (N); made in house; host or cells: baculovirus-infected Hi5 (BTI-TN-5B1-4) insect cells
T1 sequence (Q9NWZ3 1-460): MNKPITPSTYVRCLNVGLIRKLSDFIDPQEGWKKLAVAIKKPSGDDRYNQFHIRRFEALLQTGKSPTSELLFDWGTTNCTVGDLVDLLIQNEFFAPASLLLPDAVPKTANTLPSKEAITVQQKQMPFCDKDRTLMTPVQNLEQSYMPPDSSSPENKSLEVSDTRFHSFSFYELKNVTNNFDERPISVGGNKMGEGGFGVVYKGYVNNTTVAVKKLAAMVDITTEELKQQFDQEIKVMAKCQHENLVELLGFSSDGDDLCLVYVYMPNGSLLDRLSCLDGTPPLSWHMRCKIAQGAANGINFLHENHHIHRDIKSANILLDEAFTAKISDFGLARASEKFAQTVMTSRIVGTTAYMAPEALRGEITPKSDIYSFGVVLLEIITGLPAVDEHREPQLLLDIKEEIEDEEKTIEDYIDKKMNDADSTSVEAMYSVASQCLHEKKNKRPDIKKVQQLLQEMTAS
How it was run: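 Signal was the 665/620 nm emission ratio from a europium anti-mouse-IgG, anti-phosphoserine antibody and streptavidin-XL665 complex formed over 1 h at 22°C. It was scaled between no-enzyme (100%) and no-compound (0%) wells. Beforehand, compounds (20 µM down to 0.073 nM, 11 points) sat 15 min with roughly 0.2 nM insect-cell-expressed GST-human IRAK4 before phosphorylation of a biotinylated peptide substrate.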

**Q.** With `O=C1COCCN1C1CN(c2nc(N[C@H]3C[C@@H](O)C3)nc3c2cnn3-c2cccc(C(F)(F)F)c2)C1` [Example I-121, 4-(1-{6-[(cis-3-hydroxycyclobutyl)amino]-1-[3-(trifluoromethyl)phenyl]-1H-pyrazolo[3,4-d]pyrimidin-4-yl}azetidin-3-yl)morpholin-3-one] as the compound, how does the IC50 read?
**A.** 3.65 nM

**Q.** With `C[C@]1(O)C[C@H](Nc2nc(N3CC(N4CCOCC4=O)C3)c3cnn(-c4cccc(C(F)(F)F)c4)c3n2)C1` [Example I-122, 4-(1-{6-[(trans-3-hydroxy-3-methylcyclobutyl)amino]-1-[3-(trifluoromethyl)phenyl]-1H-pyrazolo[3,4-d]pyrimidin-4-yl}azetidin-3-yl)morpholin-3-one] as the compound, how does the IC50 read?
**A.** 2.75 nM

**Q.** With `CC1(N2CCOCC2)CN(c2nc(N[C@H]3C[C@](C)(O)C3)nc3c2cnn3-c2cccc(C(F)(F)F)c2)C1` [Example I-123, trans-1-methyl-3-({4-[3-methyl-3-(morpholin-4-yl)azetidin-1-yl]-1-[3-(trifluoromethyl)-phenyl]-1H-pyrazolo[3,4-d]pyrimidin-6-yl}amino)cyclobutanol] as the compound, how does the IC50 read?
**A.** 7.98 nM

**Q.** With `C[C@]1(O)CCN(c2nc(N[C@H]3C[C@@H](O)C3)nc3c2cnn3-c2cccc(C(F)(F)F)c2)C1` [Example I-124, (3S)-1-(6-{[(1s,3R)-3-hydroxycyclobutyl]amino}-1-[3-(trifluoromethyl)phenyl]-1H-pyrazolo[3,4-d]pyrimidin-4-yl)-3-methylpyrrolidin-3-ol] as the compound, how does the IC50 read?
**A.** 22.5 nM

**Q.** Which IC50 does the source give for `CCC1(O)CN(c2nc(N[C@H]3CCN(C)C3)nc3c2cnn3-c2cccc(S(C)(=O)=O)c2)C1` [Example V-1, 3-ethyl-1-(6-{[(3S)-1-methylpyrrolidin-3-yl]amino}-1-[3-(methylsulfonyl)phenyl]-1H-pyrazolo[3,4-d]pyrimidin-4-yl)azetidin-3-ol] here?
**A.** 170 nM

**Q.** How did the IC50 turn out when `CCC1(O)CN(c2nc(N[C@@H]3CCOC3)nc3c2cnn3-c2cccc(S(C)(=O)=O)c2)C1` [Example V-2, 3-ethyl-1-{1-[3-(methylsulfonyl)phenyl]-6-[(3R)-tetrahydrofuran-3-ylamino]-1H-pyrazolo[3,4-d]pyrimidin-4-yl}azetidin-3-ol] was run?
**A.** 179 nM

**Q.** `O=S1(=O)CC[C@H](Nc2nc(N3CC(N4CCOCC4)C3)c3cnn(-c4cccc(C(F)F)c4)c3n2)C1` [II-3, 1-[3-(difluoromethyl)phenyl]-N-[(3S)-1,1-dioxidotetrahydrothiophen-3-yl]-4-[3-(morpholin-4-yl)azetidin-1-yl]-1H-pyrazolo[3,4-d]pyrimidin-6-amine] was tested. Which IC50 did it give?
**A.** 24.8 nM

**Q.** How did the IC50 turn out when `O=C(O)CC1CN(c2nc(NC3CCS(=O)(=O)CC3)nc3c2cnn3-c2cccc(C(F)F)c2)C1` [II-9, (1-{1-[3-(difluoromethyl)phenyl]-6-[(1,1-dioxidotetrahydro-2H-thiopyran-4-yl)amino]-1H-pyrazolo[3,4-d]pyrimidin-4-yl}azetidin-3-yl)acetic acid] was run?
**A.** 84.9 nM

**Q.** `CS(=O)(=O)N1CC(Nc2nc(N3CC(N4CCOCC4)C3)c3cnn(-c4cccc(C(F)F)c4)c3n2)C1` [II-13, 1-[3-(difluoromethyl)phenyl]-N-[1-(methylsulfonyl)azetidin-3-yl]-4-[3-(morpholin-4-yl)azetidin-1-yl]-1H-pyrazolo[3,4-d]pyrimidin-6-amine] was tested. Which IC50 did it give?
**A.** 13.3 nM

**Q.** `O=S1(=O)CCC(Nc2nc(N3CCC(O)(C(F)(F)F)C3)c3cnn(-c4cccc(C(F)F)c4)c3n2)CC1` (stereo not shown) [II-15, 1-{1-[3-(difluoromethyl)phenyl]-6-[(1,1-dioxidotetrahydro-2H-thiopyran-4-yl)amino]-1H-pyrazolo[3,4-d]pyrimidin-4-yl}-3-(trifluoromethyl)pyrrolidin-3-ol] was tested. Which IC50 did it give?
**A.** 45.2 nM

**Q.** For `CS(=O)(=O)N1CC(Nc2nc(N3C[C@H](O)[C@@H](F)C3)c3cnn(-c4cccc(C(F)F)c4)c3n2)C1` [II-22, (3S,4S)-1-(1-[3-(difluoromethyl)phenyl]-6-{[1-(methylsulfonyl)azetidin-3-yl]amino}-1H-pyrazolo[3,4-d]pyrimidin-4-yl)-4-fluoropyrrolidin-3-ol], which IC50 is on record?
**A.** 45.3 nM

**Q.** Which IC50 does the source give for `CS(=O)(=O)N1CC(Nc2nc(N3C[C@@H](O)[C@H](F)C3)c3cnn(-c4cccc(C(F)F)c4)c3n2)C1` [II-23, (3R,4R)-1-(1-[3-(difluoromethyl)phenyl]-6-{[1-(methylsulfonyl)azetidin-3-yl]amino}-1H-pyrazolo[3,4-d]pyrimidin-4-yl)-4-fluoropyrrolidin-3-ol] here?
**A.** 16.2 nM

**Q.** With `O[C@H]1C[C@H](Nc2nc(N3CC(N4CCOCC4)C3)c3cnn(-c4cccc(C(F)F)c4)c3n2)C1` [II-25, trans-3-({1-[3-(difluoromethyl)phenyl]-4-[3-(morpholin-4-yl)azetidin-1-yl]-1H-pyrazolo-[3,4-d]pyrimidin-6-yl}amino)cyclobutanol] as the compound, how does the IC50 read?
**A.** 6.15 nM

**Q.** With `CC(C)(C(=O)O)C1CN(c2nc(NC3CCS(=O)(=O)CC3)nc3c2cnn3-c2cccc(C(F)F)c2)C1` [II-26, 2-(1-{1-[3-(difluoromethyl)phenyl]-6-[(1,1-dioxidotetrahydro-2H-thiopyran-4-yl)amino]-1H-pyrazolo[3,4-d]pyrimidin-4-yl}azetidin-3-yl)-2-methylpropanoic acid] as the compound, how does the IC50 read?
**A.** 73.6 nM

**Q.** Which IC50 does the source give for `CCS(=O)(=O)N1CC(Nc2nc(N3CC(CC(C)(C)O)C3)c3cnn(-c4cccc(C(F)F)c4)c3n2)C1` [II-28, 1-[1-(1-[3-(difluoromethyl)phenyl]-6-{[1-(ethylsulfonyl)azetidin-3-yl]amino}-1H-pyrazolo[3,4-d]pyrimidin-4-yl)azetidin-3-yl]-2-methylpropan-2-ol] here?
**A.** 40 nM

**Q.** How did the IC50 turn out when `C[C@@]1(O)CCN(c2nc(NC3CN(S(C)(=O)=O)C3)nc3c2cnn3-c2cccc(C(F)F)c2)C1` [II-29, (3R)-1-(1-[3-(difluoromethyl)phenyl]-6-{[1-(methylsulfonyl)azetidin-3-yl]amino}-1H-pyrazolo[3,4-d]pyrimidin-4-yl)-3-methylpyrrolidin-3-ol] was run?
**A.** 67.1 nM

**Q.** Which IC50 does the source give for `CC(C)(O)C1CCN(c2nc(NC3CN(S(=O)(=O)C4CC4)C3)nc3c2cnn3-c2cccc(C(F)F)c2)CC1` [II-30, 2-[1-(6-{[1-(cyclopropylsulfonyl)azetidin-3-yl]amino}-1-[3-(difluoromethyl)phenyl]-1H-pyrazolo[3,4-d]pyrimidin-4-yl)piperidin-4-yl]propan-2-ol] here?
**A.** 16.2 nM

**Q.** Which IC50 does the source give for `CCS(=O)(=O)N1CC(Nc2nc(N3CC(N4CCOCC4)C3)c3cnn(-c4cccc(C(F)F)c4)c3n2)C1` [II-32, 1-[3-(difluoromethyl)phenyl]-N-[1-(ethylsulfonyl)azetidin-3-yl]-4-[3-(morpholin-4-yl)azetidin-1-yl]-1H-pyrazolo[3,4-d]pyrimidin-6-amine] here?
**A.** 56.7 nM

**Q.** Which IC50 does the source give for `O[C@@H]1CCN(c2nc(N[C@H]3C[C@H](O)C3)nc3c2cnn3-c2cccc(C(F)F)c2)C1` [II-33, (3R)-1-(1-[3-(difluoromethyl)phenyl]-6-{[(1r,3R)-3-hydroxycyclobutyl]amino}-1H-pyrazolo[3,4-d]pyrimidin-4-yl)pyrrolidin-3-ol] here?
**A.** 16.5 nM

**Q.** For `CC(C)(O)CC1CN(c2nc(N[C@H]3C[C@@]4(CCN4)C3)nc3c2cnn3-c2cccc(C(F)F)c2)C1` [II-36, 1-(1-{6-[(4r,6s)-1-azaspiro[3.3]heptan-6-ylamino]-1-[3-(difluoromethyl)phenyl]-1H-pyrazolo[3,4-d]pyrimidin-4-yl}azetidin-3-yl)-2-methylpropan-2-ol], which IC50 is on record?
**A.** 2.76 nM

**Q.** How did the IC50 turn out when `CC(C)(O)C1CCN(c2nc(N[C@@H]3CNC(=O)C3)nc3c2cnn3-c2cccc(OC(F)(F)F)c2)CC1` [III-1, (4S)-4-({4-[4-(2-hydroxypropan-2-yl)piperidin-1-yl]-1-[3-(trifluoromethoxy)phenyl]-1H-pyrazolo[3,4-d]pyrimidin-6-yl}amino)pyrrolidin-2-one] was run?
**A.** 19.1 nM

**Q.** Which IC50 does the source give for `CS(=O)(=O)[C@H]1C[C@H](Nc2nc(N3C[C@H](O)[C@@H](F)C3)c3cnn(-c4cccc(OC(F)F)c4)c3n2)C1` [IV-5, (3S,4S)-1-(1-[3-(difluoromethoxy)phenyl]-6-{[trans-3-(methylsulfonyl)cyclobutyl]amino}-1H-pyrazolo[3,4-d]pyrimidin-4-yl)-4-fluoropyrrolidin-3-ol] here?
**A.** 11.2 nM

**Q.** Which IC50 does the source give for `CS(=O)(=O)N1CC(Nc2nc(N3C[C@H](O)[C@@H](F)C3)c3cnn(-c4cccc(OC(F)F)c4)c3n2)C1` [IV-6, (3S,4S)-1-(1-[3-(difluoromethoxy)phenyl]-6-{[1-(methylsulfonyl)azetidin-3-yl]amino}-1H-pyrazolo[3,4-d]pyrimidin-4-yl)-4-fluoropyrrolidin-3-ol] here?
**A.** 193 nM

**Q.** Which IC50 does the source give for `O=S1(=O)CCC(Nc2nc(N3C[C@H](O)[C@@H](F)C3)c3cnn(-c4cccc(OC(F)F)c4)c3n2)CC1` [IV-7, (3S,4S)-1-{1-[3-(difluoromethoxy)phenyl]-6-[(1,1-dioxidotetrahydro-2H-thiopyran-4-yl)amino]-1H-pyrazolo[3,4-d]pyrimidin-4-yl}-4-fluoropyrrolidin-3-ol] here?
**A.** 46.4 nM

**Q.** For `CN1CC[C@H](Nc2nc(N3CCC(C(C)(C)O)CC3)c3cnn(-c4cccc(C(C)(C)O)c4)c3n2)C1` [VI-1, 2-[1-(1-[3-(2-hydroxypropan-2-yl)phenyl]-6-{[(3S)-1-methylpyrrolidin-3-yl]amino}-1H-pyrazolo[3,4-d]pyrimidin-4-yl)piperidin-4-yl]propan-2-ol], which IC50 is on record?
**A.** 77.3 nM
